# Test results taken from the supplement of paper PMC10307832.
# Assays:
# Test in all cases: relative viability (nuclei count vs DMSO), 5 days (fraction); higher = more cells survive
# [1] = compound: CNC(=O)c1ccccc1Sc1ccc2c(/C=C/c3ccccn3)n[nH]c2c1 [Axitinib] + C[C@]1(O)C[C@@H](c2nc(-c3ccc4ccc(-c5ccccc5)nc4c3)c3c(N)nccn32)C1 [Linsitinib] (partner 1 µM)
# How it was run: (§1)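 Each reported value is a median over duplicate plates. It expresses relative viability: treated-well nuclei count divided by vehicle-well nuclei count. Lung cancer cell lines in 1536-well plates were dosed by pin tool a day after seeding, alone with one drug or with a fixed anchor-drug dose plus five library-drug doses (not always all listed) in √10 steps, and nuclei were counted after 5 days.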
# [2] = compound: Nc1nc(Nc2ccc3c(c2)CC[C@@H](N2CCCC2)CC3)nn1-c1cc2c(nn1)-c1ccccc1CCC2 [Bemcentinib] + CC(=O)c1c(C)c2cnc(Nc3ccc(N4CCNCC4)cn3)nc2n(C2CCCC2)c1=O [Palbociclib] (partner 0.5 µM)
# How it was run: as §1
# [3] = compound: CNC(=O)c1ccccc1Sc1ccc2c(/C=C/c3ccccn3)n[nH]c2c1 [Axitinib] + CC(=O)c1c(C)c2cnc(Nc3ccc(N4CCNCC4)cn3)nc2n(C2CCCC2)c1=O [Palbociclib] (partner 0.5 µM)
# How it was run: as §1
# [4] = compound: CC1=CC=C(C=C1)C(=O)CN2C3=C(CCCC3)SC2=N [Pifithrin_alpha] + NC(=O)Nc1cc(-c2cccc(F)c2)sc1C(=O)N[C@H]1CCCNC1 [AZD7762] (partner 0.2 µM)
# How it was run: as §1
Cell Line,relative viability ([1]; first compound 0.005 µM),relative viability ([1]; first compound 0.01581 µM),relative viability ([1]; first compound 0.05 µM),relative viability ([1]; first compound 0.1581 µM),relative viability ([1]; first compound 0.5 µM),relative viability ([2]; first compound 0.04 µM),relative viability ([2]; first compound 0.1265 µM),relative viability ([2]; first compound 0.4 µM),relative viability ([2]; first compound 1.265 µM),relative viability ([2]; first compound 4 µM),relative viability ([3]; first compound 0.005 µM),relative viability ([3]; first compound 0.01581 µM),relative viability ([3]; first compound 0.05 µM),relative viability ([3]; first compound 0.1581 µM),relative viability ([3]; first compound 0.5 µM),relative viability ([4]; first compound 1 µM),relative viability ([4]; first compound 3.162 µM),relative viability ([4]; first compound 10 µM),relative viability ([4]; first compound 100 µM),relative viability ([4]; first compound 31.62 µM)
NCI-H460,0.94,0.875,0.861,0.716,0.854,0.241,0.147,0.221,0.301,0.199,0.154,0.211,0.143,0.145,0.319,0.545,0.501,0.401,0.375,–
NCI-H647,1.23,1.27,1.19,1.25,1.44,0.43,0.445,0.387,0.315,0.462,0.554,0.375,0.475,0.395,0.421,–,0.368,0.307,0.287,0.361
NCI-H727,0.415,0.246,0.311,0.246,0.432,0.625,0.663,0.637,0.696,0.667,0.597,0.66,0.596,0.673,0.613,0.478,0.57,0.571,0.48,0.51
NCI-H838,1.04,1.01,1.1,1,1.19,0.226,0.249,0.221,0.205,0.243,0.246,0.229,0.233,0.226,0.23,0.875,0.909,0.832,0.884,0.744
NCI-H1355,0.834,0.811,0.845,0.865,0.819,0.396,0.403,0.419,0.415,0.437,0.415,0.443,0.426,0.414,0.409,0.857,0.633,0.511,0.514,0.463
NCI-H1395,1.2,0.913,1.37,0.97,1.18,–,0.621,0.645,0.64,0.631,0.594,0.509,0.507,0.579,0.711,–,0.385,0.397,0.361,–
NCI-H1437,1.02,1.07,1,0.898,0.797,0.322,0.373,0.298,0.226,0.324,0.353,0.283,0.346,0.307,0.313,1.21,1.21,1.11,0.942,0.735
NCI-H1651,1.08,0.895,0.914,0.964,1.23,0.528,0.542,0.528,0.576,0.512,0.597,0.542,0.471,0.514,0.544,0.399,0.461,0.454,0.512,0.361
NCI-H1666,0.926,0.917,0.786,0.8,0.912,0.656,0.645,0.675,0.683,0.672,0.689,0.606,0.653,0.631,0.657,0.767,0.717,0.677,0.491,0.581
NCI-H1734,1.05,0.829,0.977,0.903,1.04,0.345,0.32,0.349,0.345,0.345,0.35,0.373,0.345,0.334,0.425,0.486,0.526,0.517,0.524,0.429
NCI-H1755,1.04,0.963,0.99,1.02,1.03,0.43,0.462,0.425,0.479,0.439,0.472,0.423,0.462,0.512,0.42,0.433,0.498,0.46,0.434,0.41
NCI-H1792,0.575,0.629,0.527,0.557,0.504,0.711,0.714,0.675,0.721,0.664,0.654,0.635,0.592,0.564,0.654,0.656,0.508,0.453,0.494,–
NCI-H1793,0.85,0.836,0.935,1.01,0.881,0.331,0.369,0.306,0.26,0.322,0.285,0.259,0.369,0.285,0.346,0.605,0.402,0.441,0.255,0.323
NCI-H1915,1.03,1.12,1.09,1.13,1.13,0.532,0.506,0.521,0.512,0.527,0.526,0.534,0.512,0.524,0.566,0.682,0.694,0.647,0.656,–
NCI-H1944,1.24,1.16,1.16,1.16,1.24,0.324,0.379,0.304,0.327,0.329,0.365,0.342,0.328,0.318,0.307,0.514,0.574,0.563,0.468,0.529
NCI-H1975,1.17,1.1,1.09,0.988,1.18,0.561,0.827,0.665,0.567,0.746,0.694,0.586,0.507,0.541,0.672,0.508,0.485,0.501,0.38,0.512
